Reference: BindingDB's records for doi:10.1080/14756360310001613094 (Xiamen University, 2003)

Target: T1, Polyphenol oxidase 2 (Agaricus bisporus, UniProt O42713)
T1 sequence (O42713 whole entry): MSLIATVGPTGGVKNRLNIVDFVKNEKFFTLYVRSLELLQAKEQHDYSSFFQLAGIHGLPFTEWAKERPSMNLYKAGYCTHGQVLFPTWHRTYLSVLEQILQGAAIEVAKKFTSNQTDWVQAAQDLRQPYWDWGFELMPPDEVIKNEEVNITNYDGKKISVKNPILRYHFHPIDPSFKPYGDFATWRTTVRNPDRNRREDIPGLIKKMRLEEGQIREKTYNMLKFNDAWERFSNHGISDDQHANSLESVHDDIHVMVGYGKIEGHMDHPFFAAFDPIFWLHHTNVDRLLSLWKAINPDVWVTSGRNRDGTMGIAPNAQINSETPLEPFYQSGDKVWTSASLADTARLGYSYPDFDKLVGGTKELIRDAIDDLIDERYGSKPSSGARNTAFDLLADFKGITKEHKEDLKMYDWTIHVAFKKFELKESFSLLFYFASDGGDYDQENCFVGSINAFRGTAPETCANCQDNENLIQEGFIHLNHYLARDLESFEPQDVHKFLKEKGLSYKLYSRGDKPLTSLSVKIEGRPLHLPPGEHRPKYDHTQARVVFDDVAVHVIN
Assay: Inhibition Assay
Source text: Inhibition of alklbenzaldehydes on tyrosinase enzyme.

IC50 [µM]	SMILES	Ki [µM]
10	CCCCCCCCc1ccc(C=O)cc1 [p-Octylbenzaldehyde, l]	
13.5	CCCCCc1ccc(C=O)cc1 [p-Pentylbenzaldehyde, i]	
75	CCCc1ccc(C=O)cc1 [p-Propyl-benzaldehyde, e]	
38	CC(C)(C)c1ccc(C=O)cc1 [p-Tert-butylbenzaldehyde, g]	
38	CCCCc1ccc(C=O)cc1 [p-butyl-benzaldehyde, h]	

Second part, the molecule before the results:

SMILES	IC50 [µM]	Ki [µM]
Cc1ccc(C=O)cc1 [4-Methylbenzaldehyde]	120	
Cc1cccc(C=O)c1 [m-Tolualdehyde, b]	450	290
Cc1ccccc1C=O [o-Tolualdehyde, a]	2600	1850
CCc1ccc(C=O)cc1 [p-Ethylbenzaldehyde, d]	95	
CCCCCCCc1ccc(C=O)cc1 [p-Heptylbenzaldehyde, k]	8.8	
CCCCCCc1ccc(C=O)cc1 [p-Hexylbenzaldehyde, j]	8	
CC(C)c1ccc(C=O)cc1 [p-Isopropylbenzaldehyde, f]	75	
